The results in this text go back to ChEMBL document CHEMBL4507267 (2021).

Broadly, the inhibition is the relative decrease from the control value, in per cent. The term IC50 denotes the concentration needed to halve the response being measured. A lower IC50 goes with higher potency. Usually Ki stands for a measure of affinity in units of concentration, obtained from inhibition or displacement.

Assay [1] deals with Hepatocyte growth factor receptor (Homo sapiens) (UniProt P08581). The note with it: Compound concentration 1000.0 nM.
The target of assay [2] is Mitogen-activated protein kinase kinase kinase 7 (Homo sapiens) (UniProt O43318). As to conditions: Compound concentration 1000.0 nM; call rule not given here.
The target in assay [3] is Eukaryotic translation initiation factor 2-alpha kinase 1 (Homo sapiens) (UniProt Q9BQI3). The note with it: Compound concentration 1000.0 nM.
The target of assay [4] is 5-hydroxytryptamine receptor 1B (Homo sapiens) (UniProt P28222). As to conditions: Compound concentration 10.0 uM.
Assay [5] addresses T1, Histamine H1 receptor (Homo sapiens, UniProt P35367). The note with it: Compound concentration 10.0 uM.
Assay [6] addresses Sodium-dependent noradrenaline transporter (Homo sapiens) (UniProt P23975). The note with it: Compound concentration 10.0 uM.
The target in assay [7] is Cyclin-dependent kinase 18 (Homo sapiens) (UniProt Q07002). The note with it: Compound concentration 1000.0 nM.
Assay [8] has as its target Receptor-interacting serine/threonine-protein kinase 1 (Homo sapiens) (UniProt Q13546). The note with it: Compound concentration 1000.0 nM.
Assay [9] concerns the target Solute carrier family 2, facilitated glucose transporter member 2 (Homo sapiens, UniProt P11168). As to the kind of experiment: Cell-based assay with CellTiter-Glo readout for ATP production with SLC2A2.
Assay [10] concerns the target Cyclin-dependent kinase 15 (Homo sapiens) (UniProt Q96Q40). As to conditions: Compound concentration 1000.0 nM.
The target in assay [11] is Serine/threonine-protein kinase TAO3 (Homo sapiens) (UniProt Q9H2K8). As to conditions: Compound concentration 1000.0 nM.
Assay [12] deals with Sigma intracellular receptor 2 (Homo sapiens) (UniProt Q5BJF2). As to conditions: Compound concentration 10.0 uM.
In assay [13] the target is Tyrosine-protein kinase Fes/Fps (Homo sapiens) (UniProt P07332). The note with it: Compound concentration 1000.0 nM.
The target in assay [14] is D(1A) dopamine receptor (Homo sapiens) (UniProt P21728). As to conditions: Compound concentration 10.0 uM.
Assay [15] concerns the target Serine/threonine-protein kinase LATS1 (Homo sapiens) (UniProt O95835). The note with it: Compound concentration 1000.0 nM.
For assay [16], the target named is Cyclin-dependent kinase 17 (Homo sapiens) (UniProt Q00537). As to conditions: Compound concentration 1000.0 nM.
Assay [17] has as its target Delta-type opioid receptor (Homo sapiens) (UniProt P41143). As to conditions: Compound concentration 10.0 uM.
Assay [18] concerns Epidermal growth factor receptor (Homo sapiens), P00533 [L858R,T790M]. As to conditions: Compound concentration 1000.0 nM.
For assay [19], the target named is Solute carrier family 2, facilitated glucose transporter member 4 (Homo sapiens, UniProt P14672). As to the kind of experiment: Cell-based assay with CellTiter-Glo readout for ATP production with SLC2A4. On the technique in general: Cellular ATP, detected with luciferase, serves as a proxy for viable cell number.
The species entered for the next assay is Rattus norvegicus. As to conditions: Compound concentration 10.0 uM.
Assay [20] concerns the target 5-hydroxytryptamine receptor 7 (Homo sapiens) (UniProt P34969). As to conditions: Compound concentration 10.0 uM.
Assay [21] concerns the target T1, Histamine H1 receptor. As to the kind of experiment: GPCRScan assay: inhibition of H1. Further details: radioligand conc. used [nm] 0.6 – 2.0, parental cells stable HEK.
Another assay addresses Histamine H2 receptor (Homo sapiens, UniProt P25021). Description: GPCRScan assay: inhibition of H2. Also noted: radioligand conc. used [nm] 0.02 – 0.05, parental cells Stable HEK.

Sequence of Cyclin-dependent kinase 17 (Homo sapiens) (Q00537 whole entry, looked up): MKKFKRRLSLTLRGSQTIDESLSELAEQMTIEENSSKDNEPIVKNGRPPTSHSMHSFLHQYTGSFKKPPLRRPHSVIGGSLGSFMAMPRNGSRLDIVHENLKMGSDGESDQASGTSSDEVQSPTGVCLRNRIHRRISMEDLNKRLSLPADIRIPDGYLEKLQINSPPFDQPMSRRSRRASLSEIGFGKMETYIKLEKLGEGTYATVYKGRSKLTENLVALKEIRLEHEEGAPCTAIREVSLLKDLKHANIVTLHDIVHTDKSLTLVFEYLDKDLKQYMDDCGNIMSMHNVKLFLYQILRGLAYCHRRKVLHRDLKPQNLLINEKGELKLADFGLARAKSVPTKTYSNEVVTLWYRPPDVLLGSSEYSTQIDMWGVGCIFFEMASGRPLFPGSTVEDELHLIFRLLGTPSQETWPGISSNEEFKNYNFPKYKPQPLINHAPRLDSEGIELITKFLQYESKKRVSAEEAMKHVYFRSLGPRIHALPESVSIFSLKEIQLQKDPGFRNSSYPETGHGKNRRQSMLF
Sequence of Mitogen-activated protein kinase kinase kinase 7 (Homo sapiens) (O43318 whole entry): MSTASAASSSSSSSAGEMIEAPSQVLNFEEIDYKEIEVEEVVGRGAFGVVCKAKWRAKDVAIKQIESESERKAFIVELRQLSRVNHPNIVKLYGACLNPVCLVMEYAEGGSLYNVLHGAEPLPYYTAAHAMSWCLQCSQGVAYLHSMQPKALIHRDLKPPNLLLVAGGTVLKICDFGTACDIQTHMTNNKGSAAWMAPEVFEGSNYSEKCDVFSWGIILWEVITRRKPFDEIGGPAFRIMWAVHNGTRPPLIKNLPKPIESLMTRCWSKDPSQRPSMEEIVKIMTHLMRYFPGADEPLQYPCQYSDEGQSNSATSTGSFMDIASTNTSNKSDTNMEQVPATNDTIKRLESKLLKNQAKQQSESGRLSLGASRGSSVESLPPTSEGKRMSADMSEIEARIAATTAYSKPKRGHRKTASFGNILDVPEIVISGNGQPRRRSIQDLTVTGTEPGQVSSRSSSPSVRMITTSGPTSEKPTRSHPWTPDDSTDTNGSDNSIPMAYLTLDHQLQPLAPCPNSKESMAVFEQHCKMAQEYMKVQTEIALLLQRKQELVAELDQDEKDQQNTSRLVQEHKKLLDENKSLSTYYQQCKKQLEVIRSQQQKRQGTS
Sequence of Hepatocyte growth factor receptor (Homo sapiens) (P08581 whole entry): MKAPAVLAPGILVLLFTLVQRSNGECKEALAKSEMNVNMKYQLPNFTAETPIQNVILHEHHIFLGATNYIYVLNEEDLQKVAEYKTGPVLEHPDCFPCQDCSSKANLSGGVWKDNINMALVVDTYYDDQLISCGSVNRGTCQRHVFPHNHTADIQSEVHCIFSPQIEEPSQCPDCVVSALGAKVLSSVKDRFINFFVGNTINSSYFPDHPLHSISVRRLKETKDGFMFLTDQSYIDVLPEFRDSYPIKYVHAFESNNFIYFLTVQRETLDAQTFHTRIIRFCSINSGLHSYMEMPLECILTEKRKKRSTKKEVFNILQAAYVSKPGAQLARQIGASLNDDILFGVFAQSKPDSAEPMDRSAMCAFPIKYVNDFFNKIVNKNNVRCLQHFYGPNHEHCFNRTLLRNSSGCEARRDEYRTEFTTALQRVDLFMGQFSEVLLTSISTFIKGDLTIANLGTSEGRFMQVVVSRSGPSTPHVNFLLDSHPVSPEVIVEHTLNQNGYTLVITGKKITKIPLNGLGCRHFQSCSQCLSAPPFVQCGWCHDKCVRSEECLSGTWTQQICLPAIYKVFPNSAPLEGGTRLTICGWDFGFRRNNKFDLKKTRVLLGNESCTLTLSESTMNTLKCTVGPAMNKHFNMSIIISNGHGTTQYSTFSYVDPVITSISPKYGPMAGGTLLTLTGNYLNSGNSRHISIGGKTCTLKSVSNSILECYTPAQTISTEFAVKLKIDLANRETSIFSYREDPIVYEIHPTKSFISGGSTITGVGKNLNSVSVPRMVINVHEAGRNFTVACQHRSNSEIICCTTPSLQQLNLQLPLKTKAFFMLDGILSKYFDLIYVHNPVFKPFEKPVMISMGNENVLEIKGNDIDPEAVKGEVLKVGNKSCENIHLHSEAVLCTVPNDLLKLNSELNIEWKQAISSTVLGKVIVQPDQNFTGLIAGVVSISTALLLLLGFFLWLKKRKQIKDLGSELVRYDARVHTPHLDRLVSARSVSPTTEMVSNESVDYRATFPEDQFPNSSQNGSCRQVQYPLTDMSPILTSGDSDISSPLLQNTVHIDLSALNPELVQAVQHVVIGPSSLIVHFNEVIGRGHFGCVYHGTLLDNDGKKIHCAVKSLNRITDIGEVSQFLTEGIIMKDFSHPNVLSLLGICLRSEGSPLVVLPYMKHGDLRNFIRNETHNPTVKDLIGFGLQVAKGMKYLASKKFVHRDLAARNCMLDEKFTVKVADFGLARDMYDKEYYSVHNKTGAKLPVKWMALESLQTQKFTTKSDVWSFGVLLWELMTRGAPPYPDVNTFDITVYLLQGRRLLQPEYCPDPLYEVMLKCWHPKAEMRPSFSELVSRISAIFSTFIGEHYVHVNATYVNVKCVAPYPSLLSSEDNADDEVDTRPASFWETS
Sequence of Cyclin-dependent kinase 18 (Homo sapiens) (Q07002 whole entry): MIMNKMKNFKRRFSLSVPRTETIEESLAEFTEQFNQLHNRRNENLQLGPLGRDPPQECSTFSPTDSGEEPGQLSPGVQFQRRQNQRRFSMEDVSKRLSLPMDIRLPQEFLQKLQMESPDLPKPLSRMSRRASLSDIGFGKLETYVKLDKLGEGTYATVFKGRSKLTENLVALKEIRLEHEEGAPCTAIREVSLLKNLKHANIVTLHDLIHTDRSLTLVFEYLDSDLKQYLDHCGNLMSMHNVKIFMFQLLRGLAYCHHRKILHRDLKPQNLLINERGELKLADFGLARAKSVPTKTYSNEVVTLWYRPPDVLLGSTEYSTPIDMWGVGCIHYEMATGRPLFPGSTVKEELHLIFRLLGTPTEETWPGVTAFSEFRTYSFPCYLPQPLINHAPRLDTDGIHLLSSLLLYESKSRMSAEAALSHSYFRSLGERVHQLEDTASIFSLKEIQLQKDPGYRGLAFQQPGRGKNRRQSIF
T1 sequence (P35367 whole entry): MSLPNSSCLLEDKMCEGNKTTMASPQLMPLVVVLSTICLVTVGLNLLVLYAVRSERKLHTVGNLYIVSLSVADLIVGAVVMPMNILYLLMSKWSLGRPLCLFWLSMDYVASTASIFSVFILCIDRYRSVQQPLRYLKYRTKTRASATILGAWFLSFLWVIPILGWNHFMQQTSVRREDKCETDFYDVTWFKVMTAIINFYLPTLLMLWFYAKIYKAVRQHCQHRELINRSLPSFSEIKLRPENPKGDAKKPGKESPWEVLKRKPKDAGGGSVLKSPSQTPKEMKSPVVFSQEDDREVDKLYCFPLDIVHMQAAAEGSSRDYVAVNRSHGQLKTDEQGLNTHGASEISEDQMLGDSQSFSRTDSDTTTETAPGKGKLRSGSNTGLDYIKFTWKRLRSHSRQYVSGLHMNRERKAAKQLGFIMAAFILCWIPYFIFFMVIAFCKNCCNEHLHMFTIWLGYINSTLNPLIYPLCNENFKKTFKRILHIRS
Sequence of Receptor-interacting serine/threonine-protein kinase 1 (Homo sapiens) (Q13546 whole entry): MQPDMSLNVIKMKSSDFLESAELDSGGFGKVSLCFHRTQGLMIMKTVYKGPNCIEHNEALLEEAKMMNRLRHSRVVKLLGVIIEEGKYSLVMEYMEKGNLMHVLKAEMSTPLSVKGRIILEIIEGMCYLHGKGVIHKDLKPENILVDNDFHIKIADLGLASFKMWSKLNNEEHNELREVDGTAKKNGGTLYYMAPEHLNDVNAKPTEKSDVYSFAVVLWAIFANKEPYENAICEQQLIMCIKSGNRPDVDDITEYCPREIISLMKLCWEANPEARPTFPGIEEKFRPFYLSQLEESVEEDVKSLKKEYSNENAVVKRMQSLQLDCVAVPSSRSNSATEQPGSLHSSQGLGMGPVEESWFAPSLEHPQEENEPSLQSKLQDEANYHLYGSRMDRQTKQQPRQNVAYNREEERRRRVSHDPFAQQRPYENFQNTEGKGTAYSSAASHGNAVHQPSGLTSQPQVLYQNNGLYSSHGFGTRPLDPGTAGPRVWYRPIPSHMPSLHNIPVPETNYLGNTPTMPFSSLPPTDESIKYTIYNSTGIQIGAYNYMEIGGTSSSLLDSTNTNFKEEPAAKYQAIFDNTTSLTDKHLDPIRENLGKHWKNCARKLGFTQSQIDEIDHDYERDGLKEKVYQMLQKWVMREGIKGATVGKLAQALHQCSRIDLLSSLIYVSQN
Sequence of Serine/threonine-protein kinase TAO3 (Homo sapiens) (Q9H2K8 whole entry): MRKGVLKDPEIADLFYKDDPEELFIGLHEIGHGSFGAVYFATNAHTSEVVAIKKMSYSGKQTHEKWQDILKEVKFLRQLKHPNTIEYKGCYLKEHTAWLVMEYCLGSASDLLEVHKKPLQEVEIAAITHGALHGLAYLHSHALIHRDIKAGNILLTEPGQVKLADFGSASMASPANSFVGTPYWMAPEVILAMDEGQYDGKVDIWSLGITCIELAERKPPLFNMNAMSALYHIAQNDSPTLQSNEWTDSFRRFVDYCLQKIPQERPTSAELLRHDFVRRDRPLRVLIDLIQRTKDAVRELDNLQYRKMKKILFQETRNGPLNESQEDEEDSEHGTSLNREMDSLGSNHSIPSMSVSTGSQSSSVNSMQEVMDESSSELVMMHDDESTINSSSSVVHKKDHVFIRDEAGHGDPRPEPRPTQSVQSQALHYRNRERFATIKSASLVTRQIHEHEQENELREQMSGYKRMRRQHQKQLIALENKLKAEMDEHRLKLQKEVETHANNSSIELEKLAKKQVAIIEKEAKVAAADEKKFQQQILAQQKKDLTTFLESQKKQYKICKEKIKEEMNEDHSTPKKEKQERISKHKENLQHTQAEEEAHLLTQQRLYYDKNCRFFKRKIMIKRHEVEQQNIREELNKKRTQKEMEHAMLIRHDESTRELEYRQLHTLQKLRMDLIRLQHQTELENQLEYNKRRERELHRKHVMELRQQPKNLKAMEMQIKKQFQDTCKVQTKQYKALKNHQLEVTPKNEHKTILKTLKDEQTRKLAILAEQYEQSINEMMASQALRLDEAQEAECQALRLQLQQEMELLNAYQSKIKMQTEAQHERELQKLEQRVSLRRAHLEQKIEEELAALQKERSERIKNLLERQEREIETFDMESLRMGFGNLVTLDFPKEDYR

`Cc1c(NC(=O)c2cc(C(N)=O)nc3cc(F)ccc23)c(C(F)(F)F)nn1Cc1ccc(C(C)(C)C)cc1` [BAY-588]: the residual activity in [1] was 100%; in assay [2], 100%; in assay [3] it was 100%; in assay [7], 88%; in [8] it was 100%; in assay [10] it was 100%. Moreover, the residual activity is 45% in [11]; 100% in assay [13]; 100% in assay [15]; 100% in [16]; 100% in assay [18]. The inhibition in [4] was -7.67%; at Histamine H1 receptor [5], 46.1%; in [6], -4.06%; in assay [12], 40.7%; in assay [14], 3.41%; in [17] it was -9.45%. The IC50 in assay [9] is on record as > 10 µM (not active).
Take `Cc1c(NC(=O)c2cc(C(N)=O)nc3cc(F)ccc23)c(C(F)(F)F)nn1Cc1ccc(C#N)cc1` [BAY-876]: the residual activity was 100% in assay [1]; 68% in [2]; 100% in [3]; 100% in assay [7]; 100% in assay [8]; 100% in assay [10]. For the same compound, the residual activity in [11] was 79%; in assay [13], 83%; in assay [15], 94%; in assay [16] it was 92%; in assay [18] it was 93%. In addition, the IC50 in [19] is 0.27 µM (not active). Also, the inhibition was -1.8% in the assay filed under Rattus norvegicus, 2.31% in assay [20] and 2.6% in [4]. In addition, the inhibition constant Ki was found to be 10 µM on Histamine H1 receptor [21] and 8.08 µM at Histamine H2 receptor.
